Data: publication PMC9055250, “Design, synthesis, and biological evaluation of new 6,N^2-diaryl-1,3,5-triazine-2,4-diamines as anticancer agents selectively targeting triple negative breast cancer cells” (RSC Advances, 2020)
Where two headings read alike, the source gives them in different places.

What was measured:
[1] = system: MDA-MB231 breast cancer cells; experiment: MTT in vitro cytotoxicity assay, MDA-MB231; assay type: cell-based; details: Homo sapiens, MDA-MB-231; for viability at 10 µM: read-out: Cell viability (%) MDA-MB231
Experimental: (§1) The synthesized compounds were tested against three breast tumor cell lines (MDA-MB231, SKBR-3 and MCF-7) and epithelial breast cell line (MCF-10A) by the MTT colorimetric assay.[29,30] All cells were obtained from the American Type Culture Collection. The cancerous cell lines were grown in Dulbecco's modified eagle medium (DMEM) supplemented with 10% fetal bovine serum (FBS) and 1% pen-strep antibiotic. The MCF-10A human epithelial breast cell line was grown in the complete mammary epithelial growth medium containing horse serum 5%, epithelial growth factor 20 ng mL^−1, hydrocortisone […], cholera toxin 100 ng mL^−1, insulin 10 μg mL^−1, and pen-step antibiotic.[31] For the cytotoxic assay, 20 to 75 × 10^3 cells per mL (based on the doubling time for each cell line) were seeded in 96-well plates and the plates were incubated overnight in a humidified air atmosphere at 37 °C in 5% CO2 incubator.
(§2) The cells were then treated with compounds at different concentrations. After 72 h of incubation, the MTT (0.5 mg mL^−1) was added to wells, followed by 4 h of incubation. The culture medium was then removed and DMSO (100 μL per well) was added and the absorbance values were measured at 570 nm using the multi-well Tecan NanoQuant, Infinite m200 Pro plate reader. Growth inhibitory values (GI50) were calculated using GraphPad Prism 7 (GraphPad Software, San Diego, USA) by nonlinear regression analysis. Three independent experiments were carried out and the data was expressed in mean ± standard deviation (SD). The concentration–response curves used for the GI50 calculation are available in ESI. ^†

[2] = system: SKBR-3 breast cancer cells; experiment: MTT in vitro cytotoxicity assay, SKBR-3; assay type: cell-based; details: Homo sapiens; for viability at 10 µM: SK-BR-3, 10 μM, 72 h, read-out: Cell viability (%) SKBR-3; for GI50: SK-BR-3, 72 h, read-out: GI50 ± SD SKBR-3
Experimental: as §1, §2

[3] = system: MCF-7 breast cancer cells; experiment: MTT in vitro cytotoxicity assay, MCF-7; assay type: cell-based; details: Homo sapiens; for viability at 10 µM: MCF7, 10 μM, 72 h, read-out: Cell viability (%) MCF-7; for GI50: MCF7, 72 h, read-out: GI50 ± SD MCF-7
Experimental: as §1, §2

[4] = system: MCF-10A human epithelial breast cell line; experiment: MTT in vitro cytotoxicity assay, MCF-10A; assay type: cell-based; details: 72 h, read-out: GI50 ± SD MCF-10A
Experimental: as §1, §2

[5] = 72 h, MTT, read-out: GI50 ± SD MDA-MB231
[6] = MDA-MB231, calculated from GI50, read-out: Experimental pGI50 (converted)

| Compound | viability at 10 µM ([1]; 72 h, MTT) | GI50 [1, 5] | GI50 [1, 6] | viability at 10 µM [2] | GI50 [2] | viability at 10 µM [3] | GI50 [3] | GI50 [4] | melting point |
| --- | --- | --- | --- | --- | --- | --- | --- | --- | --- |
| COc1ccccc1Nc1nc(N)nc(-c2cccc(F)c2)n1 [Compound 1, 6-(3-Fluorophenyl)-N^2-(2-methoxyphenyl)-1,3,5-triazine-2,4-diamine] | 49% | 17.3 ± 0.6 µM | 17.4 µM | 84% | > 20 µM | 88% | > 20 µM | > 20 µM | 140 to 142 °C |
| Cc1ccc(Nc2nc(N)nc(-c3ccc(Cl)cc3)n2)cc1 [Compound 2, 6-(4-Chlorophenyl)-N^2-(4-methylphenyl)-1,3,5-triazine-2,4-diamine] | 29% | 13.8 ± 1.9 µM | 13.8 µM | 85% | > 20 µM | 100% | > 20 µM | > 20 µM | 179 to 181 °C |
| Nc1nc(Nc2ccccc2Cl)nc(-c2ccc(C(F)(F)F)cc2)n1 [Compound 3, N ^2-(2-Chlorophenyl)-6-(4-(trifluoromethyl)phenyl)-1,3,5-triazine-2,4-diamine] | 49% | 13.7 ± 0.6 µM | 13.8 µM | 83% | 17.7 ± 1.4 µM | 96% | > 20 µM | > 20 µM | 165 to 167 °C |
| Nc1nc(Nc2ccc(Cl)cc2)nc(-c2ccc(OC(F)(F)F)cc2)n1 [Compound 4, N ^2-(4-Chlorophenyl)-6-(4-(trifluoromethoxy)phenyl)-1,3,5-triazine-2,4-diamine] | 34% | 16.7 ± 1.2 µM | 16.6 µM | 86% | > 20 µM | 95% | > 20 µM | > 20 µM | 201 to 203 °C |
| CN(C)c1ccc(-c2nc(N)nc(Nc3ccccc3Cl)n2)cc1 [Compound 5, N ^2-(2-Chlorophenyl)-6-(4-(dimethylamino)phenyl)-1,3,5-triazine-2,4-diamine] | 28% | 0.1 ± 0.001 µM | 0.1 µM | 55% | 0.4 ± 0.04 µM | 86% | > 20 µM | > 20 µM | 191 to 193 °C |
| Cc1ccc(-c2nc(N)nc(Nc3ccccc3Cl)n2)cc1 [Compound 6, N ^2-(2-Chlorophenyl)-6-(4-methylphenyl)-1,3,5-triazine-2,4-diamine] | 36% | 3.8 ± 0.4 µM | 3.8 µM | 80% | > 20 µM | 51% | 10.7 ± 1 µM | > 20 µM | 146 to 148 °C |
| Cc1ccc(-c2nc(N)nc(Nc3ccc(Cl)cc3)n2)cc1 [Compound 7, N ^2-(4-Chlorophenyl)-6-(4-methylphenyl)-1,3,5-triazine-2,4-diamine] | 51% | 9.6 ± 0.2 µM | 9.55 µM | 76% | > 20 µM | 95% | > 20 µM | > 20 µM | 202 to 204 °C |
| COc1ccc(-c2nc(N)nc(Nc3ccccc3)n2)cc1 [Compound 8, 6-(4-Methoxyphenyl)-N^2-phenyl-1,3,5-triazine-2,4-diamine] | 28% | 8.4 ± 0.3 µM | 8.32 µM | 67% | 19.6 ± 0.9 µM | 85% | 14.2 ± 1.7 µM | > 20 µM | 190 to 192 °C |
| COc1ccc(-c2nc(N)nc(Nc3ccc(C)cc3)n2)cc1 [Compound 9, 6-(4-Methoxyphenyl)-N^2-(4-methylphenyl)-1,3,5-triazine-2,4-diamine] | 32% | 6.1 ± 0.6 µM | 6.17 µM | 89% | > 20 µM | 99% | > 20 µM | > 20 µM | 186 to 188 °C |
| COc1cc(-c2nc(N)nc(Nc3ccccc3)n2)cc(OC)c1OC [Compound 10, N ^2-Phenyl-6-(3,4,5-trimethoxyphenyl)-1,3,5-triazine-2,4-diamine] | 14% | 9.7 ± 0.6 µM | 9.77 µM | 37% | 17.2 ± 0.4 µM | 62% | > 20 µM | > 20 µM | 111 to 113 °C |
| COc1cc(-c2nc(N)nc(Nc3ccccc3F)n2)cc(OC)c1OC [Compound 11, N ^2-(2-Fluorophenyl)-6-(3,4,5-trimethoxyphenyl)-1,3,5-triazine-2,4-diamine] | 34% | 7.9 ± 0.5 µM | 7.94 µM | 73% | > 20 µM | 98% | > 20 µM | > 20 µM | 177 to 179 °C |
| COc1cc(-c2nc(N)nc(Nc3ccccc3Cl)n2)cc(OC)c1OC [Compound 12, N ^2-(2-Chlorophenyl)-6-(3,4,5-trimethoxyphenyl)-1,3,5-triazine-2,4-diamine] | 42% | 11.3 ± 1.1 µM | 11.2 µM | 80% | > 20 µM | 100% | > 20 µM | > 20 µM | 176 to 178 °C |
| COc1ccccc1Nc1nc(N)nc(-c2cc(OC)c(OC)c(OC)c2)n1 [Compound 13, N ^2-(2-Methoxyphenyl)-6-(3,4,5-trimethoxyphenyl)-1,3,5-triazine-2,4-diamine] | 16% | 2.1 ± 0.2 µM | 2.04 µM | 57% | 14 ± 1.6 µM | 100% | > 20 µM | > 20 µM | 173 to 175 °C |
| COc1cc(-c2nc(N)nc(Nc3cccc(Cl)c3)n2)cc(OC)c1OC [Compound 14, N ^2-(3-Chlorophenyl)-6-(3,4,5-trimethoxyphenyl)-1,3,5-triazine-2,4-diamine] | 40% | 9.1 ± 1.1 µM | 9.12 µM | 58% | 16.7 ± 1.4 µM | 96% | > 20 µM | > 20 µM | 193 to 195 °C |
| CN(Cc1cnc2nc(N)nc(N)c2n1)c1ccc(C(=O)N[C@@H](CCC(=O)O)C(=O)O)cc1 [Methotrexate, reference compound] |  | 0.01 ± 0.001 µM |  |  |  |  | 5.8 ± 0.5 µM |  |  |
| Cc1cn(-c2cc(NC(=O)c3ccc(C)c(Nc4nccc(-c5cccnc5)n4)c3)cc(C(F)(F)F)c2)cn1 [Nilotinib, reference compound] |  | 0.04 ± 0.001 µM |  |  | 9.6 ± 0.5 µM |  |  |  |  |
